Values quoted from earlier work, collected in patent US20090053319A1 (priority 2007, published 2009).

Conditions: pure capsaicinoid; background statement

## COc1cc(CNC(=O)CCCC/C=C/C(C)C)ccc1O [Capsaicin]
  pungency (Scoville scale): 15,000,000-16,000,000 Scoville units
